The test system of experiment [1] is CEM. Description: Cytostatic effect (cell proliferation, Coulter count). In kind it is cell-based. To be noted: Homo sapiens, CCRF-CEM; cell number reduced by 50%, 68-72 hours; read-out: ID50 CEM. On the procedure:
(§1) Raji/0 cells and Raji/TK⁻ (a thymidine (dThd) kinasedeficient mutant cell line derived from wild-type Raji/0 cells, were grown in 75 cm² plastic tissue culture flasks (International Medical, Brussels, Belgium), in Eagle's minimal essential medium, supplemented with 10% (v/v) inactivated foetal calf serum (Gibco, Glasgow, Scotland, U.K.), 2 mM L-glutamine (Flow Laboratories, Irvine, Scotland, U.K.) and 1% THM (5 mM Tes, 7.5 mM Hepes and 5 mM (MOPS) buffer ([…]). The Raji/0 and Raji/TK⁻ cells were characterized according to J. Balzarini et al (Biochem. Pharmacol. 31, 1089-1095 (1982)). Molt/4F, CEM and H9 cells were grown in Eagle's minimal essential medium, supplemented with 10% (v/v) inactivated foetal calf serum and 2 mM L-glutamine. MT4 cells were cultivated in RPMI 1640 medium (Gibco) containing 20 mM Hepes buffer, 10% (v/v) inactivated foetal calf serum (Gibco) and 2 mM L-glutamine (Flow Laboratories).
(§2) All assays were performed in flat bottom Microtest III Plates (96 wells) (Falcon) as previously described by E. De Clercq et al (Mol. Pharmacol. 19, 321-330 (1981)). Briefly, the cells were suspended in growth medium and added to the microplate wells at a density of 7.5 x 10⁴ cells/well (200 µ1) in the presence of varying concentrations of the test compounds. The cells were then allowed to proliferate for 68-72 hours at 37°C in a humidified, CO₂-controlled atmosphere. At the end of the incubation period, the cells were counted with a Coulter Counter (Coulter Electronics Ltd., Harpenden Herts, U.K.). The 50% inhibitory dose (ID₅₀) was defined as the concentration of compound that reduced the number of cells by 50%.

Experiment [2] relates to H9. Described as above. The following applies: Homo sapiens, cell number reduced by 50%, 68-72 hours, read-out: ID50 H9. In kind it is cell-based. Here is the method:
as §1, §2

For experiment [3], the system named is MT4. The description is as above. In kind it is cell-based. The following applies: Homo sapiens, cell number reduced by 50%, 68-72 hours, read-out: ID50 MT4. Here is the method:
as §1, §2

Experiment [4] deals with Molt/4F. The description is as above. The following applies: Homo sapiens, cell number reduced by 50%, 68-72 hours, read-out: ID50 Molt/4F. In kind it is cell-based. On the procedure:
as §1, §2

For experiment [5], the system named is Raji/0. The description is as above. In kind it is cell-based. To be noted: Homo sapiens, cell number reduced by 50%, 68-72 hours, read-out: ID50 Raji/0. Here is the method:
as §1, §2

Experiment [6] concerns Raji/TK-. The experiment is described as above. In kind it is cell-based. To be noted: Homo sapiens, cell number reduced by 50%, 68-72 hours, read-out: ID50 Raji/TK-. Here is the method: as §1, §2
Experiment [7] concerns Molt/4F cells. The experiment in a line: Tritium release from (5-3H)dUrd or (5-3H)dCyd in intact Molt/4F cells. In kind it is cell-based. To be noted: Homo sapiens. On the procedure: Briefly, 10⁷ Molt/4F cells/ml were preincubated with an appropriate amount of test compound for 15 min at 37°C. After this incubation period, radiolabelled (5-³H)dUrd or (5-³H)dCyd (100 µCi/ml; 0.1 µM) were added, and at various times (0, 15, 30, 45, 60 min), 100 µl of the reaction mixture was withdrawn, and mixed with 500 µl of a cold suspension of carbon black (100 mg/ml) in 5% TCA. After centrifugation at 1000 g for 10 min, the supernatants were analysed for radioactivity.

The target in experiment [8] is T1, Molt/4F dCyd kinase (Homo sapiens, UniProt P27707).
T1 construct: endogenous in cells; host or cells: Molt/4F cells (sonicated extract, 30-70% ammonium sulfate fraction, dialyzed)
The experiment in a line: Inhibition of dCyd kinase (Lineweaver-Burk). In kind it is biochemical. The following applies: for Type of inhibition: with respect to dCyd. On the procedure: ddUrd and the 3′-fluoro- and 3′-azido-substituted pyrimidine 2′,3′-dideoxynucleoside analogues were evaluated for their inhibitory effect against dThd and dCyd kinase.
dThd kinase and dCyd kinase were prepared from exponen tially growing Molt/4F cells, which were first washed (2x) with phosphate-buffered saline at 4° and then homogenized by sonication. The suspensions were clarified by centrifugation at 25,000-27,000 x g for 30 min. The 30-70% (NH₄)₂SO₄ precipitate of the supernatant was resuspended in buffer containing 10 uM potassium phosphate, pH 7.5, 10 mM β-mercaptoethanol and 0.1 M KCl, dialyzed against the same buffer, and used for the dThd kinase and the dCyd kinase assays. In these experiments, (2-¹⁴C)dThd and (U-¹⁴C)dCyd served as the radiolabelled substrates. The apparent Km and Ki values were derived from Lineweaver-Burk plots, using a linear regression analysis program. The assay procedures have been described in detail (J. Balzarini et al, (1983) and J. Balzarini et al, Biochem. Pharmacol. 31, 3673-3682 (1982)).

The subject of experiment [9] is human B- and T-cell lines. Description: Cytostatic effect, pooled over several cell lines. In kind it is cell-based. To be noted: for IC50: read-out: ID50 (the source's name). On the procedure: as §2, with “Clercq” left out, “10^4” for “10⁴”, “μ1)” for “µ1)”, “CO2-controlled” for “CO₂-controlled”, “U.K.).” for “U.K.). The 50% inhibitory dose (ID₅₀) was defined as the concentration of compound that reduced the number of cells by 50%.”

Where [10] appears, read: read-out: ID50 tritium release from (5-3H)dCyd.
[11] abbreviates: read-out: ID50 tritium release from (5-3H)dUrd.
[12] abbreviates: Homo sapiens, CEM and Molt/4F cells, range over both compounds and both cell lines.
[13] abbreviates: Homo sapiens, Raji cells, range over both compounds.

Molecules are shown by their SMILES. Like-named read-outs stand apart in the source and are kept apart here. Bounds are passed on as bounds.

T1 sequence (P27707 whole entry): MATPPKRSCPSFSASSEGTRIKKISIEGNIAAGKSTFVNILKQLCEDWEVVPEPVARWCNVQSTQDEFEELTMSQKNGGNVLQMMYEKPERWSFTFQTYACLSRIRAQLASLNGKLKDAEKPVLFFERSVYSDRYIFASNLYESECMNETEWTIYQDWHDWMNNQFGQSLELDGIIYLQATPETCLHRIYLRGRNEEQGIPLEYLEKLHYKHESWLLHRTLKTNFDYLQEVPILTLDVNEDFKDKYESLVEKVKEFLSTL

Consider `CCc1cn([C@H]2C[C@H](N=[N+]=[N-])[C@@H](CO)O2)c(=O)[nH]c1=O` [AzddEtUrd, 3′-azido-2′,3′-dideoxy-5-ethyluridine], for which the IC50 in [1] was greater than 1000 µM; in experiment [2], greater than 1 mM; in experiment [3], 160 µM; in experiment [4], greater than 1 mM; in experiment [5], greater than 1 mM; in experiment [6], greater than 1 mM. Besides, the IC50 is greater than 250 µM in [7] (setting [10]) and 51 µM in experiment [7] (setting [11]).

Consider `[N-]=[N+]=N[C@H]1C[C@H](n2ccc(=O)[nH]c2=O)O[C@@H]1CO` [AzddUrd, 3′-azido-2′,3′-dideoxyuridine], for which the IC50 in experiment [1] is 423 µM; in experiment [2] it was greater than 1 mM; in experiment [3], 364 µM; in experiment [4] it was greater than 1 mM; in experiment [5], no less than 1 mM; in experiment [6], greater than 1 mM. Besides, the values for the IC50 in [7] (setting [10]) and in experiment [7] (setting [11]) were greater than 250 µM and 20 µM, respectively.

On to `Nc1ccn([C@H]2C[C@H](F)[C@@H](CO)O2)c(=O)n1` [FddCyd, 3′-fluoro-2′,3′-dideoxycytidine], for which the IC50 is 7 µM in experiment [1]; greater than 1 mM in [2]; greater than 1000 µM in experiment [3]; 0.024 mM in experiment [4]; 0.095 mM in experiment [5]; 0.118 mM in experiment [6]. In addition, the values for the IC50 in [9] (setting [12]) and in [9] (setting [13]) were 6 to 24 µM and 23 to 95 µM, respectively. In experiment [8] (Km 5.2 to 6.4 µM), this compound gave a Ki/Km of 63. Besides, affinity in [8] (substrate (U-14C)dCyd) was put at a Ki of 360 µM. For the same compound, the Type of inhibition entry in [8] was “competitive”.

Take `CCc1cn([C@H]2C[C@H](F)[C@@H](CO)O2)c(=O)[nH]c1=O` [FddEtUrd, 3′-fluoro-2′,3′-dideoxy-5-ethyluridine]: the IC50 in experiment [1] is greater than 1000 µM; in [2], greater than 1 mM; in experiment [3] it was greater than 1000 µM; in experiment [4], greater than 1 mM; in experiment [5] it was greater than 1 mM; in [6], greater than 1 mM. For the same compound, the IC50 in experiment [7] (setting [11]) was greater than 250 µM.

On to `O=c1ccn([C@H]2C[C@H](F)[C@@H](CO)O2)c(=O)[nH]1` [FddUrd, 3′-fluoro-2′,3′-dideoxyuridine], for which the IC50 is 14 µM in [1]; greater than 1 mM in experiment [2]; greater than 1000 µM in [3]; no less than 1 mM in [4]; greater than 1 mM in [5]; greater than 1 mM in experiment [6]. Besides, the IC50 was greater than 250 µM in [7] (setting [10]), 126 µM in experiment [7] (setting [11]) and greater than 1000 µM in [9] (the other cell lines (all but CEM)). Besides, the “fold higher susceptibility of CEM cells to the cytostatic action than the other cell lines” value in experiment [9] (CEM versus other cell lines) is listed as 70 fold.

As for `Nc1ccn([C@H]2CC[C@@H](CO)O2)c(=O)n1` [ddCyd, 2′,3′-Dideoxycytidine], the IC50 in [1] is 6 µM; in experiment [2] it was 0.243 mM; in [3] it was no less than 1000 µM; in [4], 0.007 mM; in experiment [5], 0.023 mM; in [6], 0.028 mM. In addition, the IC50 was in the range of 6 to 24 µM in experiment [9] (setting [12]) and 23 to 95 µM in [9] (setting [13]). The Type of inhibition entry in [8] is listed as “competitive”.

On to `CCc1cn([C@H]2CC[C@@H](CO)O2)c(=O)[nH]c1=O` [ddEtUrd, 2′,3′-Dideoxy-5-ethyluridine], for which the IC50 is greater than 1000 µM in [1]; greater than 1 mM in experiment [2]; 326 µM in experiment [3]; greater than 1 mM in experiment [4]; greater than 1 mM in experiment [5]; greater than 1 mM in [6]. For the same compound, the IC50 in [7] (setting [11]) is greater than 250 µM.

For `O=c1ccn([C@H]2CC[C@@H](CO)O2)c(=O)[nH]1` [ddUrd, 2′-3′-dideoxyuridine], the IC50 in experiment [1] is greater than 1000 µM; in experiment [2], greater than 1 mM; in [3] it was no less than 1000 µM; in experiment [4] it was greater than 1 mM; in experiment [5] it was greater than 1 mM; in [6], greater than 1 mM. The IC50 in experiment [7] (setting [10]) and in [7] (setting [11]) was greater than 250 µM each time.

Broadly, the Ki is the dissociation constant of the complex between target and ligand, obtained from inhibition or displacement.

(Values after EP0316592A2, “3'-Fluoro-2',3'-dideoxyuridine, and its therapeutic application” (Stichting REGA V.Z.W., priority 1987, dated 1989).)
